Measurements from the NIST ThermoML archive (doi:10.1016/j.tca.2015.06.017).
± gives the expanded uncertainty stated by the source.

Test: xn = mol fraction of the nth substance listed
Settings: Liquid, Vibrating tube method

CC(C)CCl [1-chloro-2-methylpropane] + CCCCCCC
mass density [kg/m3]
Settings | 293.15 K | 298.15 K
100 kPa, x2 = 0.0531 | – | 857.37 ± 0.24
100 kPa, x2 = 0.1023 | – | 844.58 ± 0.24
100 kPa, x2 = 0.2009 | – | 820.42 ± 0.24
100 kPa, x2 = 0.3009 | – | 797.89 ± 0.24
100 kPa, x2 = 0.3981 | – | 777.63 ± 0.24
100 kPa, x2 = 0.4986 | – | 758.2 ± 0.24
100 kPa, x2 = 0.5998 | – | 740.04 ± 0.25
100 kPa, x2 = 0.7038 | – | 722.73 ± 0.25
100 kPa, x2 = 0.7993 | – | 707.93 ± 0.25
100 kPa, x2 = 0.8995 | – | 693.43 ± 0.25
100 kPa, x2 = 0.9507 | – | 686.38 ± 0.25
2000 kPa, x2 = 0.0531 | – | 859.45 ± 0.25
2000 kPa, x2 = 0.1023 | – | 846.69 ± 0.25
2000 kPa, x2 = 0.2009 | – | 822.61 ± 0.25
2000 kPa, x2 = 0.3009 | – | 800.07 ± 0.26
2000 kPa, x2 = 0.3981 | – | 779.77 ± 0.26
2000 kPa, x2 = 0.4986 | – | 760.3 ± 0.26
2000 kPa, x2 = 0.5998 | – | 742.16 ± 0.26
2000 kPa, x2 = 0.7038 | – | 724.79 ± 0.27
2000 kPa, x2 = 0.7993 | – | 709.96 ± 0.27
2000 kPa, x2 = 0.8995 | – | 695.5 ± 0.27
2000 kPa, x2 = 0.9507 | – | 688.51 ± 0.27
5000 kPa, x2 = 0.0531 | – | 862.78 ± 0.26
5000 kPa, x2 = 0.1023 | – | 849.99 ± 0.27
5000 kPa, x2 = 0.2009 | – | 825.85 ± 0.27
5000 kPa, x2 = 0.3009 | – | 803.24 ± 0.28
5000 kPa, x2 = 0.3981 | – | 782.87 ± 0.28
5000 kPa, x2 = 0.4986 | – | 763.35 ± 0.29
5000 kPa, x2 = 0.5998 | – | 745.14 ± 0.29
5000 kPa, x2 = 0.7038 | – | 727.73 ± 0.3
5000 kPa, x2 = 0.7993 | – | 712.83 ± 0.3
5000 kPa, x2 = 0.8995 | – | 698.32 ± 0.3
5000 kPa, x2 = 0.9507 | – | 691.31 ± 0.31
7000 kPa, x2 = 0.0531 | – | 864.94 ± 0.27
7000 kPa, x2 = 0.1023 | – | 852.13 ± 0.28
7000 kPa, x2 = 0.2009 | – | 827.95 ± 0.28
7000 kPa, x2 = 0.3009 | – | 805.31 ± 0.29
7000 kPa, x2 = 0.3981 | – | 784.94 ± 0.3
7000 kPa, x2 = 0.4986 | – | 765.38 ± 0.3
7000 kPa, x2 = 0.5998 | – | 747.13 ± 0.31
7000 kPa, x2 = 0.7038 | – | 729.69 ± 0.32
7000 kPa, x2 = 0.7993 | – | 714.76 ± 0.32
7000 kPa, x2 = 0.8995 | – | 700.23 ± 0.33
7000 kPa, x2 = 0.9507 | – | 693.2 ± 0.33
10000 kPa, x2 = 0.0531 | – | 868.11 ± 0.29
10000 kPa, x2 = 0.1023 | – | 855.26 ± 0.29
10000 kPa, x2 = 0.2009 | – | 831 ± 0.3
10000 kPa, x2 = 0.3009 | – | 808.29 ± 0.31
10000 kPa, x2 = 0.3981 | – | 787.84 ± 0.32
10000 kPa, x2 = 0.4986 | – | 768.21 ± 0.33
10000 kPa, x2 = 0.5998 | – | 749.91 ± 0.34
10000 kPa, x2 = 0.7038 | – | 732.42 ± 0.35
10000 kPa, x2 = 0.7993 | – | 717.45 ± 0.35
10000 kPa, x2 = 0.8995 | – | 702.88 ± 0.36
10000 kPa, x2 = 0.9507 | – | 695.78 ± 0.36
20000 kPa, x2 = 0.0531 | – | 877.88 ± 0.33
20000 kPa, x2 = 0.1023 | – | 865.08 ± 0.34
20000 kPa, x2 = 0.2009 | – | 840.5 ± 0.36
20000 kPa, x2 = 0.3009 | – | 817.71 ± 0.38
20000 kPa, x2 = 0.3981 | – | 797.11 ± 0.39
20000 kPa, x2 = 0.4986 | 781.73 ± 0.41 | 777.37 ± 0.41
20000 kPa, x2 = 0.5998 | 763.14 ± 0.42 | 758.88 ± 0.43
20000 kPa, x2 = 0.7038 | 745.41 ± 0.44 | 741.28 ± 0.44
20000 kPa, x2 = 0.7993 | 730.25 ± 0.45 | 726.13 ± 0.45
20000 kPa, x2 = 0.8995 | 715.39 ± 0.46 | 711.41 ± 0.47
20000 kPa, x2 = 0.9507 | 708.22 ± 0.47 | 704.25 ± 0.47
30000 kPa, x2 = 0.0531 | 891.52 ± 0.36 | 886.78 ± 0.37
30000 kPa, x2 = 0.1023 | 878.34 ± 0.38 | 873.9 ± 0.38
30000 kPa, x2 = 0.2009 | 853.68 ± 0.41 | 849.18 ± 0.41
30000 kPa, x2 = 0.3009 | 830.55 ± 0.43 | 826.21 ± 0.44
30000 kPa, x2 = 0.3981 | 809.73 ± 0.46 | 805.55 ± 0.46
30000 kPa, x2 = 0.4986 | 789.74 ± 0.48 | 785.57 ± 0.49
30000 kPa, x2 = 0.5998 | 771.06 ± 0.5 | 766.94 ± 0.51
30000 kPa, x2 = 0.7038 | 753.18 ± 0.53 | 749.15 ± 0.53
30000 kPa, x2 = 0.7993 | 737.88 ± 0.55 | 733.94 ± 0.55
30000 kPa, x2 = 0.8995 | 722.93 ± 0.56 | 719.07 ± 0.57
30000 kPa, x2 = 0.9507 | 715.7 ± 0.57 | 711.84 ± 0.58
40000 kPa, x2 = 0.0531 | 899.47 ± 0.39 | 895.02 ± 0.4
40000 kPa, x2 = 0.1023 | 886.28 ± 0.41 | 882.04 ± 0.42
40000 kPa, x2 = 0.2009 | 861.43 ± 0.45 | 857.18 ± 0.46
40000 kPa, x2 = 0.3009 | 838.11 ± 0.49 | 834.09 ± 0.49
40000 kPa, x2 = 0.3981 | 817.16 ± 0.52 | 813.22 ± 0.53
40000 kPa, x2 = 0.4986 | 797.04 ± 0.55 | 793.13 ± 0.56
40000 kPa, x2 = 0.5998 | 778.18 ± 0.58 | 774.36 ± 0.59
40000 kPa, x2 = 0.7038 | 760.15 ± 0.61 | 756.46 ± 0.62
40000 kPa, x2 = 0.7993 | 744.84 ± 0.64 | 741.11 ± 0.64
40000 kPa, x2 = 0.8995 | 729.76 ± 0.66 | 726.12 ± 0.67
40000 kPa, x2 = 0.9507 | 722.48 ± 0.67 | 718.83 ± 0.68
50000 kPa, x2 = 0.0531 | 906.83 ± 0.41 | 902.53 ± 0.42
50000 kPa, x2 = 0.1023 | 893.73 ± 0.44 | 889.53 ± 0.45
50000 kPa, x2 = 0.2009 | 868.58 ± 0.49 | 864.58 ± 0.5
50000 kPa, x2 = 0.3009 | 845.22 ± 0.53 | 841.36 ± 0.54
50000 kPa, x2 = 0.3981 | 824.17 ± 0.58 | 820.34 ± 0.58
50000 kPa, x2 = 0.4986 | 803.9 ± 0.62 | 800.16 ± 0.62
50000 kPa, x2 = 0.5998 | 784.93 ± 0.65 | 781.27 ± 0.66
50000 kPa, x2 = 0.7038 | 766.85 ± 0.69 | 763.24 ± 0.7
50000 kPa, x2 = 0.7993 | 751.39 ± 0.72 | 747.78 ± 0.73
50000 kPa, x2 = 0.8995 | 736.21 ± 0.75 | 732.67 ± 0.76
50000 kPa, x2 = 0.9507 | 728.86 ± 0.77 | 725.32 ± 0.77
60000 kPa, x2 = 0.0531 | 913.81 ± 0.43 | 909.64 ± 0.44
60000 kPa, x2 = 0.1023 | 900.5 ± 0.46 | 896.54 ± 0.47
60000 kPa, x2 = 0.2009 | 875.39 ± 0.52 | 871.48 ± 0.53
60000 kPa, x2 = 0.3009 | 851.83 ± 0.58 | 848.21 ± 0.59
60000 kPa, x2 = 0.3981 | 830.75 ± 0.63 | 827.13 ± 0.64
60000 kPa, x2 = 0.4986 | 810.36 ± 0.68 | 806.82 ± 0.68
60000 kPa, x2 = 0.5998 | 791.29 ± 0.72 | 787.83 ± 0.73
60000 kPa, x2 = 0.7038 | 773.13 ± 0.77 | 769.72 ± 0.77
60000 kPa, x2 = 0.7993 | 757.58 ± 0.8 | 754.16 ± 0.81
60000 kPa, x2 = 0.8995 | 742.31 ± 0.84 | 738.97 ± 0.85
60000 kPa, x2 = 0.9507 | 734.9 ± 0.86 | 731.55 ± 0.87
65000 kPa, x2 = 0.0531 | 917.1 ± 0.44 | 913.06 ± 0.45
65000 kPa, x2 = 0.1023 | 903.79 ± 0.48 | 899.93 ± 0.48
65000 kPa, x2 = 0.2009 | 878.75 ± 0.54 | 874.82 ± 0.55
65000 kPa, x2 = 0.3009 | 855.14 ± 0.6 | 851.5 ± 0.61
65000 kPa, x2 = 0.3981 | 833.84 ± 0.65 | 830.36 ± 0.66
65000 kPa, x2 = 0.4986 | 813.47 ± 0.7 | 810 ± 0.71
65000 kPa, x2 = 0.5998 | 794.31 ± 0.75 | 790.97 ± 0.76
65000 kPa, x2 = 0.7038 | 775.99 ± 0.8 | 772.79 ± 0.81
65000 kPa, x2 = 0.7993 | 760.39 ± 0.84 | 757.19 ± 0.85
65000 kPa, x2 = 0.8995 | 745.06 ± 0.88 | 741.93 ± 0.89
65000 kPa, x2 = 0.9507 | 737.63 ± 0.9 | 734.52 ± 0.91
